Source: patent US8188098B2, “GPR119 receptor agonists” (Hoffmann-La Roche Inc., priority 2008, dated 2012)

These compounds were tested against T1, GPR119 receptor (Mesocricetus auratus, UniProt A0A1U8CD06) (assay: cAMP assay in HIT-T15 hamster pancreatic islet cells (functional agonist activity)). Conditions: HIT-T15 cells endogenously expressing GPR119; 30 min at 25° C.; intracellular cAMP.
T1 construct: which endogenously express the GPR119 receptor; host or cells: HIT-T15 hamster pancreatic islet cells
T1 sequence (A0A1U8CD06 1-334): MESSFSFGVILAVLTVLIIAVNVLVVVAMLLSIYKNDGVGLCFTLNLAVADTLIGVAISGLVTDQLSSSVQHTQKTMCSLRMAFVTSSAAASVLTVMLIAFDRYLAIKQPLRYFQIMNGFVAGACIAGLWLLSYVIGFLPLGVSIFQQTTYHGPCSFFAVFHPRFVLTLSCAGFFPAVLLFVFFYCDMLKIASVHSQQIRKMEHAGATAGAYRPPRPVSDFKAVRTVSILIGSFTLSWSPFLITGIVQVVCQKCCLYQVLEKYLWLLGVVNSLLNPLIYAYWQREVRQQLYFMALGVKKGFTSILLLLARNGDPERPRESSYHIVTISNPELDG
Format: cell-based
In short: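 cAMP immunoassay with luminescent read-out, EC50 fitted, after a 30 min, 25° C agonist incubation in HIT-T15 hamster islet cells expressing GPR119 natively. Medium contained 0.5 mM IBMX and 0.5 mg/ml BSA; 9000 cells/well.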

SMILES	EC50 [µM]
CC(C)(C)OC(=O)N1CCC(n2ncc3c(Oc4cnc5[nH]ccc5c4)ncnc32)CC1 [Example 72, 4-[4-(1H-Pyrrolo[2,3-b]pyridin-5-yloxy)-pyrazolo[3,4-d]pyrimidin-1-yl]-piperidine-1-carboxylic acid tert-butyl ester]	1.2
CC(C)(C)OC(=O)N1CCC(n2ncc3c(Oc4ccc(OC(F)(F)F)cc4)ncnc32)CC1 [Example 42, 4-[4-(4-Trifluoromethoxy-phenoxy)-pyrazolo[3,4-d]pyrimidin-1-yl]-piperidine-1-carboxylic acid tert-butyl ester]	1.8
CC(C)(C)OC(=O)N1CCC(n2ncc3c(Oc4ccc(-n5cnnn5)cc4)ncnc32)CC1 [Example 83, 4-[4-(4-Tetrazol-1-yl-phenoxy)-pyrazolo[3,4-d]pyrimidin-1-yl]-piperidine-1-carboxylic acid tert-butyl ester]	1.6
Cc1nc(S(C)(=O)=O)ccc1Nc1ncnc2c1cnn2C1CCN(C(=O)OC(C)(C)C)CC1 [Example 8, 4-[4-(6-Methanesulfonyl-2-methyl-pyridin-3-ylamino)-pyrazolo[3,4-d]pyrimidin-1-yl]-piperidine-1-carboxylic acid tert-butyl ester]	0.76
CC(C)(C)OC(=O)N1CCC(n2ncc3c(Oc4ccc(C#N)cc4)ncnc32)CC1 [Example 46, 4-[4-(4-Cyano-phenoxy)-pyrazolo[3,4-d]pyrimidin-1-yl]-piperidine-1-carboxylic acid tert-butyl ester]	0.48
CC(C)OC(=O)N1CCC(n2ncc3c(Oc4ccc(S(C)(=O)=O)cc4F)ncnc32)CC1 [Example 23, 4-[4-(2-Fluoro-4-methanesulfonyl-phenoxy)-pyrazolo[3,4-d]pyrimidin-1-yl]-piperidine-1-carboxylic acid isopropyl ester]	0.11
COC(=O)c1ccc(Oc2ncnc3c2cnn3C2CCN(C(=O)OC(C)(C)C)CC2)c(F)c1 [Example 63, 4-[4-(2-Fluoro-4-methoxycarbonyl-phenoxy)-pyrazolo[3,4-d]pyrimidin-1-yl]-piperidine-1-carboxylic acid tert-butyl ester]	0.42
CC(=O)N1CCN(c2ccc(Oc3ncnc4c3cnn4C3CCN(C(=O)OC(C)(C)C)CC3)cc2)CC1 [Example 67, 4-{4-[4-(4-Acetyl-piperazin-1-yl)-phenoxy]-pyrazolo[3,4-d]pyrimidin-1-yl}-piperidine-1-carboxylic acid tert-butyl ester]	0.85
CC(=O)c1ccc(Oc2ncnc3c2cnn3C2CCN(C(=O)OC(C)(C)C)CC2)cc1 [Example 64, 4-[4-(4-Acetyl-phenoxy)-pyrazolo[3,4-d]pyrimidin-1-yl]-piperidine-1-carboxylic acid tert-butyl ester]	0.15
Cc1nc(-n2cncn2)ccc1Oc1ncnc2c1cnn2C1CCN(C(=O)OC(C)C)CC1 [Example 30, 4-[4-(2-Methyl-6-[1,2,4]triazol-1-yl-pyridin-3-yloxy)-pyrazolo[3,4-d]pyrimidin-1-yl]-piperidine-1-carboxylic acid isopropyl ester]	0.86
Cc1nc(S(C)(=O)=O)ccc1Oc1ncnc2c1cnn2C1CCN(C(=O)OC(C)C)CC1 [Example 29, 4-[4-(6-Methanesulfonyl-2-methyl-pyridin-3-yloxy)-pyrazolo[3,4-d]pyrimidin-1-yl]-piperidine-1-carboxylic acid isopropyl ester]	0.14
CC(=O)Nc1cccc(Oc2ncnc3c2cnn3C2CCN(C(=O)OC(C)(C)C)CC2)c1 [Example 69, 4-[4-(3-Acetylamino-phenoxy)-pyrazolo[3,4-d]pyrimidin-1-yl]-piperidine-1-carboxylic acid tert-butyl ester]	0.6
CC(C)(C)OC(=O)N1CCC(n2ncc3c(Oc4ccc(-n5ncnn5)cc4)ncnc32)CC1 [Example 82, 4-[4-(4-Tetrazol-2-yl-phenoxy)-pyrazolo[3,4-d]pyrimidin-1-yl]-piperidine-1-carboxylic acid tert-butyl ester]	1.8
CC(C)(C)OC(=O)N1CCC(n2ncc3c(Oc4ccc(C(N)=O)cc4)ncnc32)CC1 [Example 62, 4-[4-(4-Carbamoyl-phenoxy)-pyrazolo[3,4-d]pyrimidin-1-yl]-piperidine-1-carboxylic acid tert-butyl ester]	0.65
CC(C)(C)OC(=O)N1CCC(n2ncc3c(Oc4ccc(Cl)cc4Cl)ncnc32)CC1 [Example 38, 4-[4-(2,4-Dichloro-phenoxy)-pyrazolo[3,4-d]pyrimidin-1-yl]-piperidine-1-carboxylic acid tert-butyl ester]	0.49
CC(C)(C)OC(=O)N1CCC(n2ncc3c(Nc4cc(F)c(F)cc4F)ncnc32)CC1 [Example 4, 4-[4-(2,4,5-Trifluoro-phenylamino)-pyrazolo[3,4-d]pyrimidin-1-yl]-piperidine-1-carboxylic acid tert-butyl ester]	0.53
Cc1nn(C2CCN(C(=O)OC(C)C)CC2)c2ncnc(Oc3cc(F)c(F)cc3F)c12 [Example 17, 4-[3-Methyl-4-(2,4,5-trifluoro-phenoxy)-pyrazolo[3,4-d]pyrimidin-1-yl]-piperidine-1-carboxylic acid isopropyl ester]	0.7

Other lines, results leading:

EC50 [µM]	SMILES
1	CC(OC(=O)N1CCC(n2ncc3c(Oc4ccc(S(C)(=O)=O)cc4)ncnc32)CC1)C(F)(F)F (stereo not shown) [Example 110, 4-[4-(4-Methanesulfonyl-phenoxy)-pyrazolo[3,4-d]pyrimidin-1-yl]-piperidine-1-carboxylic acid 2,2,2-trifluoro-1-methyl-ethyl ester]
0.028	Cc1nc(Oc2ccc(S(C)(=O)=O)cc2)c2cnn(C3CCN(C(=O)OC(C)(C)C)CC3)c2n1 [Example 175, 4-[4-(4-Methanesulfonyl-phenoxy)-6-methyl-pyrazolo[3,4-d]pyrimidin-1-yl]-piperidine-1-carboxylic acid tert-butyl ester]
0.42	CS(=O)(=O)c1ccc(Oc2ncnc3c2cnn3C2CCN(C(=O)C3CCCC3)CC2)cc1 [Example 141, Cyclopentyl-{4-[4-(4-methanesulfonyl-phenoxy)-pyrazolo[3,4-d]pyrimidin-1-yl]-piperidin-1-yl}-methanone]
0.49	CC(C)(C)OC(=O)N1CCC(n2ncc3c(Oc4ccc(-c5ccsc5)cc4)ncnc32)CC1 [Example 86, 4-[4-(4-Thiophen-3-yl-phenoxy)-pyrazolo[3,4-d]pyrimidin-1-yl]-piperidine-1-carboxylic acid tert-butyl ester]
2.3	Cc1ncccc1Oc1ncnc2c1cnn2C1CCN(c2nc(C(C)C)no2)CC1 [Example 129, 1-[1-(3-Isopropyl-[1,2,4]oxadiazol-5-yl)-piperidin-4-yl]-4-(2-methyl-pyridin-3-yloxy)-1H-pyrazolo[3,4-d]pyrimidine]
1.8	CC(C)(C)OC(=O)N1CCC(n2ncc3c(Oc4cncc(Cl)c4)ncnc32)CC1 [Example 100, 4-[4-(5-Chloro-pyridin-3-yloxy)-pyrazolo[3,4-d]pyrimidin-1-yl]-piperidine-1-carboxylic acid tert-butyl ester]
1.5	CS(=O)(=O)c1ccc(Oc2ncnc3c2cnn3C2CCN(Cc3cccc(C#N)c3)CC2)cc1 [Example 168, 3-{4-[4-(4-Methanesulfonyl-phenoxy)-pyrazolo[3,4-d]pyrimidin-1-yl]-piperidin-1-ylmethyl}-benzonitrile]
0.1	CC(C)(C)COC(=O)N1CCC(n2ncc3c(Oc4ccc(S(C)(=O)=O)cc4)ncnc32)CC1 [Example 108, 4-[4-(4-Methanesulfonyl-phenoxy)-pyrazolo[3,4-d]pyrimidin-1-yl]-piperidine-1-carboxylic acid 2,2-dimethyl-propyl ester]
0.68	CS(=O)(=O)c1ccc(Oc2ncnc3c2cnn3C2CCN(C(=O)OC(CF)CF)CC2)cc1 [Example 109, 4-[4-(4-Methanesulfonyl-phenoxy)-pyrazolo[3,4-d]pyrimidin-1-yl]-piperidine-1-carboxylic acid 2-fluoro-1-fluoromethyl-ethyl ester]
0.17	CCOc1ccc(Oc2ncnc3c2cnn3C2CCN(C(=O)OC3CCCC3)CC2)c(F)c1 [Example 117, 4-[4-(4-Ethoxy-2-fluoro-phenoxy)-pyrazolo[3,4-d]pyrimidin-1-yl]-piperidine-1-carboxylic acid cyclopentyl ester]
3.6	CS(=O)(=O)c1ccc(Oc2ncnc3c2cnn3C2CCN(Cc3nccs3)CC2)cc1 [Example 169, 4-(4-Methanesulfonyl-phenoxy)-(1-thiazol-2-ylmethyl-piperidin-4-yl)-1H-pyrazolo[3,4-d]pyrimidine]
0.4	CC(C)CS(=O)(=O)N1CCC(n2ncc3c(Oc4ccc(S(C)(=O)=O)cc4)ncnc32)CC1 [Example 171, 4-(4-Methanesulfonyl-phenoxy)-1-[1-(2-methyl-propane-1-sulfonyl)-piperidin-4-yl]-1H-pyrazolo[3,4-d]pyrimidine]
0.78	CC(C)(C)C(=O)N1CCC(n2ncc3c(Oc4ccc(S(C)(=O)=O)cc4)ncnc32)CC1 [Example 138, 1-{4-[4-(4-Methanesulfonyl-phenoxy)-pyrazolo[3,4-d]pyrimidin-1-yl]-piperidin-1-yl}-2,2-dimethyl-propan-1-one]
1.6	CS(=O)(=O)c1ccc(Oc2ncnc3c2cnn3C2CCN(C(=O)c3cccs3)CC2)cc1 [Example 155, {4-[4-(4-Methanesulfonyl-phenoxy)-pyrazolo[3,4-d]pyrimidin-1-yl]-piperidin-1-yl}-thiophen-2-yl-methanone]
